Measured values: PubChem BioAssay AID1963965 (Molecular Pharmacology Branch, DTP, NCI, 2024)

Test system: 996289-038-R-J1-PDC spheroid viability
Assay: Anticancer human tumor 996289-038-R-J1-PDC patient-derived colon adenocarcinoma cell line growth inhibition [PI3K]
Conditions: spheroids with HUVEC and MSC; for IC50: curve of first compound; for viability, T/C: stronger effect = lower value
How it was run: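 Stroma-containing spheroids: tumor line, pooled-donor HUVEC, hMSC. Treatments: targeted agents with PI3K inhibitors. Dosing: clinically relevant, half-log spacing, 10 microM ceiling without known Cmax. Read-out: cell viability.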

[1] = second compound 0.0316 µM, first compound 0.000316 µM
[2] = second compound 0.0316 µM, first compound 0.001 µM
[3] = second compound 0.0316 µM, first compound 0.00316 µM
[4] = second compound 0.0316 µM, first compound 0.01 µM
[5] = second compound 0.0316 µM, first compound 0.0316 µM
[6] = second compound 0.0316 µM, first compound 0.1 µM
[7] = second compound 0.1 µM, first compound 0.000316 µM
[8] = second compound 0.1 µM, first compound 0.001 µM
[9] = second compound 0.1 µM, first compound 0.00316 µM
[10] = second compound 0.1 µM, first compound 0.01 µM
[11] = second compound 0.1 µM, first compound 0.0316 µM
[12] = second compound 0.1 µM, first compound 0.1 µM
[13] = second compound 0.316 µM, first compound 0.000316 µM
[14] = second compound 0.316 µM, first compound 0.001 µM
[15] = second compound 0.316 µM, first compound 0.00316 µM
[16] = second compound 0.316 µM, first compound 0.01 µM
[17] = second compound 0.316 µM, first compound 0.0316 µM
[18] = second compound 0.316 µM, first compound 0.1 µM
[19] = second compound 1 µM, first compound 0.000316 µM
[20] = second compound 1 µM, first compound 0.001 µM
[21] = second compound 1 µM, first compound 0.00316 µM
[22] = second compound 1 µM, first compound 0.01 µM
[23] = second compound 1 µM, first compound 0.0316 µM
[24] = second compound 1 µM, first compound 0.1 µM
[25] = second compound 3.16 µM, first compound 0.000316 µM
[26] = second compound 3.16 µM, first compound 0.001 µM
[27] = second compound 3.16 µM, first compound 0.00316 µM
[28] = second compound 3.16 µM, first compound 0.01 µM
[29] = second compound 3.16 µM, first compound 0.0316 µM
[30] = second compound 3.16 µM, first compound 0.1 µM
[31] = second compound 10 µM, first compound 0.000316 µM
[32] = second compound 10 µM, first compound 0.001 µM
[33] = second compound 10 µM, first compound 0.00316 µM
[34] = second compound 10 µM, first compound 0.01 µM
[35] = second compound 10 µM, first compound 0.0316 µM
[36] = second compound 10 µM, first compound 0.1 µM
[37] = second compound 0.0316 µM, first compound 0.316 µM
[38] = second compound 0.0316 µM, first compound 1 µM
[39] = second compound 0.0316 µM, first compound 3.16 µM
[40] = second compound 0.0316 µM, first compound 10 µM
[41] = second compound 0.1 µM, first compound 0.316 µM
[42] = second compound 0.1 µM, first compound 1 µM
[43] = second compound 0.1 µM, first compound 3.16 µM
[44] = second compound 0.1 µM, first compound 10 µM
[45] = second compound 0.316 µM, first compound 0.316 µM
[46] = second compound 0.316 µM, first compound 1 µM
[47] = second compound 0.316 µM, first compound 3.16 µM
[48] = second compound 0.316 µM, first compound 10 µM
[49] = second compound 1 µM, first compound 0.316 µM
[50] = second compound 1 µM, first compound 1 µM
[51] = second compound 1 µM, first compound 3.16 µM
[52] = second compound 1 µM, first compound 10 µM
[53] = second compound 3.16 µM, first compound 0.316 µM
[54] = second compound 3.16 µM, first compound 1 µM
[55] = second compound 3.16 µM, first compound 3.16 µM
[56] = second compound 3.16 µM, first compound 10 µM
[57] = second compound 10 µM, first compound 0.316 µM
[58] = second compound 10 µM, first compound 1 µM
[59] = second compound 10 µM, first compound 3.16 µM
[60] = second compound 10 µM, first compound 10 µM
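Also: spheroids exposed to compounds for seven days before viability read.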
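For viability, T/C in this document: luminescence used as a proxy for viable cell amount; percent viability relative to DMSO vehicle control as 100%.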

`CC(=O)c1c(C)c2cnc(Nc3ccc(N4CCNCC4)cn3)nc2n(C2CCCC2)c1=O` + CC(Nc1ncnc2nc[nH]c12)c1cc2cccc(Cl)c2c(=O)n1-c1ccccc1 was tested, and the IC50 (second compound 0.0316 µM) was > 0.1 µM, the IC50 (second compound 0.1 µM) was > 0.1 µM and the IC50 (second compound 0.316 µM) was > 0.1 µM. For the same compound, the IC50 (second compound 1 µM) was > 0.1 µM, the IC50 (second compound 3.16 µM) was > 0.1 µM and the IC50 (second compound 10 µM) was > 0.1 µM. It also gave a viability, T/C [1] of 104%, a viability, T/C [2] of 96.3% and a viability, T/C [3] of 93.2%. For the same compound, the viability, T/C [4] was 92%, the viability, T/C [5] was 99.2% and the viability, T/C [6] was 84.2%. It also gave a viability, T/C [7] of 96.4%, a viability, T/C [8] of 97.5% and a viability, T/C [9] of 101%. It also gave a viability, T/C [10] of 102%, a viability, T/C [11] of 107% and a viability, T/C [12] of 90.1%. It also gave a viability, T/C [13] of 93.8%, a viability, T/C [14] of 105% and a viability, T/C [15] of 102%. The viability, T/C [16] was 97.7%, the viability, T/C [17] was 108% and the viability, T/C [18] was 86.7%. It also gave a viability, T/C [19] of 106%, a viability, T/C [20] of 102% and a viability, T/C [21] of 90.3%. It also gave a viability, T/C [22] of 95.2%, a viability, T/C [23] of 92.4% and a viability, T/C [24] of 89.8%. It also gave a viability, T/C [25] of 102%, a viability, T/C [26] of 91.3% and a viability, T/C [27] of 88.4%. The viability, T/C [28] was 95.9%, the viability, T/C [29] was 103% and the viability, T/C [30] was 84.5%. For the same compound, the viability, T/C [31] was 87.5%, the viability, T/C [32] was 84.4% and the viability, T/C [33] was 88.2%. The viability, T/C [34] was 86.7%, the viability, T/C [35] was 104% and the viability, T/C [36] was 72.7%.

`CC(C)n1nc(-c2ccc3oc(N)nc3c2)c2c(N)ncnc21` + CC(Nc1ncnc2nc[nH]c12)c1cc2cccc(Cl)c2c(=O)n1-c1ccccc1 gave an IC50 (second compound 0.0316 µM) of 0.0801 µM, an IC50 (second compound 0.1 µM) of 0.062 µM and an IC50 (second compound 0.316 µM) of 0.0649 µM. It also gave an IC50 (second compound 1 µM) of 0.058 µM, an IC50 (second compound 3.16 µM) of 0.0717 µM and an IC50 (second compound 10 µM) of 0.0629 µM. The viability, T/C [1] was 107%, the viability, T/C [2] was 88.6% and the viability, T/C [3] was 97.6%. The viability, T/C [4] was 86.7%, the viability, T/C [5] was 82.7% and the viability, T/C [6] was 42.3%. For the same compound, the viability, T/C [7] was 124%, the viability, T/C [8] was 96.5% and the viability, T/C [9] was 96.1%. It also gave a viability, T/C [10] of 95.8%, a viability, T/C [11] of 70.8% and a viability, T/C [12] of 34.5%. For the same compound, the viability, T/C [13] was 105%, the viability, T/C [14] was 87.4% and the viability, T/C [15] was 84.6%. The viability, T/C [16] was 87.3%, the viability, T/C [17] was 73.9% and the viability, T/C [18] was 36.2%. For the same compound, the viability, T/C [19] was 98.4%, the viability, T/C [20] was 97.9% and the viability, T/C [21] was 85.9%. The viability, T/C [22] was 84.6%, the viability, T/C [23] was 65.7% and the viability, T/C [24] was 35.9%. It also gave a viability, T/C [25] of 87.5%, a viability, T/C [26] of 87.5% and a viability, T/C [27] of 86.2%. It also gave a viability, T/C [28] of 89.5%, a viability, T/C [29] of 76.8% and a viability, T/C [30] of 38.9%. For the same compound, the viability, T/C [31] was 85%, the viability, T/C [32] was 82% and the viability, T/C [33] was 82.9%. It also gave a viability, T/C [34] of 79%, a viability, T/C [35] of 68.8% and a viability, T/C [36] of 37.2%.

`CC1(C)CCC(CN2CCN(c3ccc(C(=O)NS(=O)(=O)c4ccc(NCC5CCOCC5)c([N+](=O)[O-])c4)c(Oc4cnc5[nH]ccc5c4)c3)CC2)=C(c2ccc(Cl)cc2)C1` + CC(Nc1ncnc2nc[nH]c12)c1cc2cccc(Cl)c2c(=O)n1-c1ccccc1 was tested, and the IC50 (second compound 0.0316 µM) was > 10 µM, the IC50 (second compound 0.1 µM) was > 10 µM and the IC50 (second compound 0.316 µM) was > 10 µM. The IC50 (second compound 1 µM) was > 10 µM, the IC50 (second compound 3.16 µM) was 9.57 µM and the IC50 (second compound 10 µM) was > 10 µM. For the same compound, the viability, T/C [5] was 105%, the viability, T/C [6] was 86.3% and the viability, T/C [37] was 106%. For the same compound, the viability, T/C [38] was 103%, the viability, T/C [39] was 114% and the viability, T/C [40] was 65%. The viability, T/C [11] was 108%, the viability, T/C [12] was 96.9% and the viability, T/C [41] was 99.4%. It also gave a viability, T/C [42] of 119%, a viability, T/C [43] of 128% and a viability, T/C [44] of 67%. The viability, T/C [17] was 111%, the viability, T/C [18] was 96.3% and the viability, T/C [45] was 104%. The viability, T/C [46] was 101%, the viability, T/C [47] was 112% and the viability, T/C [48] was 60.9%. For the same compound, the viability, T/C [23] was 102%, the viability, T/C [24] was 88.7% and the viability, T/C [49] was 103%. For the same compound, the viability, T/C [50] was 114%, the viability, T/C [51] was 124% and the viability, T/C [52] was 63.1%. The viability, T/C [29] was 109%, the viability, T/C [30] was 92.3% and the viability, T/C [53] was 102%. It also gave a viability, T/C [54] of 107%, a viability, T/C [55] of 112% and a viability, T/C [56] of 47.7%. It also gave a viability, T/C [35] of 88.4%, a viability, T/C [36] of 88.9% and a viability, T/C [57] of 85.7%. For the same compound, the viability, T/C [58] was 102%, the viability, T/C [59] was 108% and the viability, T/C [60] was 54.6%.

In the case of `CCCS(=O)(=O)Nc1ccc(F)c(C(=O)c2c[nH]c3ncc(-c4ccc(Cl)cc4)cc23)c1F` + CC(Nc1ncnc2nc[nH]c12)c1cc2cccc(Cl)c2c(=O)n1-c1ccccc1, the IC50 (second compound 0.0316 µM) is reported as 6.51 µM, the IC50 (second compound 0.1 µM) is reported as 6.87 µM and the IC50 (second compound 0.316 µM) is reported as 6.7 µM. For the same compound, the IC50 (second compound 1 µM) was 6.63 µM, the IC50 (second compound 3.16 µM) was 6.55 µM and the IC50 (second compound 10 µM) was 5.93 µM. The viability, T/C [5] was 99.5%, the viability, T/C [6] was 98.8% and the viability, T/C [37] was 103%. For the same compound, the viability, T/C [38] was 97.1%, the viability, T/C [39] was 98.6% and the viability, T/C [40] was 21.1%. For the same compound, the viability, T/C [11] was 103%, the viability, T/C [12] was 96.8% and the viability, T/C [41] was 119%. The viability, T/C [42] was 107%, the viability, T/C [43] was 111% and the viability, T/C [44] was 22.2%. The viability, T/C [17] was 89.8%, the viability, T/C [18] was 103% and the viability, T/C [45] was 107%. It also gave a viability, T/C [46] of 106%, a viability, T/C [47] of 99.7% and a viability, T/C [48] of 23.5%. The viability, T/C [23] was 105%, the viability, T/C [24] was 98.2% and the viability, T/C [49] was 96.9%. For the same compound, the viability, T/C [50] was 89%, the viability, T/C [51] was 102% and the viability, T/C [52] was 23.2%. For the same compound, the viability, T/C [29] was 94.9%, the viability, T/C [30] was 95.4% and the viability, T/C [53] was 93.2%. The viability, T/C [54] was 85.6%, the viability, T/C [55] was 101% and the viability, T/C [56] was 24.2%. It also gave a viability, T/C [35] of 87%, a viability, T/C [36] of 87.8% and a viability, T/C [57] of 88.3%. It also gave a viability, T/C [58] of 82.5%, a viability, T/C [59] of 99.6% and a viability, T/C [60] of 17.5%.
